# Source: ChEMBL document CHEMBL1154088, “Synthesis, biological evaluation and docking studies of novel benzopyranone congeners for their expected activity as anti-inflammatory, analgesic and antipyretic agents” (Bioorg Med Chem, 2009)
# Tests used:
# Rattus norvegicus [1] = experiment: Antipyretic activity against yeast-induced hyperpyrexia in hyperthermic rat assessed as rectal temperature at one-tenth of LD50 administered subcutaneously 18 hrs after yeast challenge measured after 4 hrs (Rvb=39.17 +/- 0.20 degC); type: functional
# Mus musculus [2] = experiment: Analgesic activity in mouse assessed as protection against acetic acid-induced writhing at one-tenth of LD50 administered subcutaneously 30 mins before acetic acid challenge measured after 4 hrs relative to control; type: functional
# Rattus norvegicus [3] = experiment: Antiinflammatory activity against carrageenan-induced foot paw edema in rat assessed as reduction in paw size at one-tenth of LD50 administered subcutaneously 30 mins before carrageenan challenge measured after 3 hrs relative to control; type: functional; design: scale not given: the % may be the effect or the level left
# Mus musculus [4] = experiment: Analgesic activity in mouse assessed as protection against acetic acid-induced writhing at one-tenth of LD50 administered subcutaneously 30 mins before acetic acid challenge measured after 2 hrs relative to control; type: functional
# Rattus norvegicus [5] = experiment: Antipyretic activity against yeast-induced hyperpyrexia in hyperthermic rat assessed as rectal temperature at one-tenth of LD50 administered subcutaneously 18 hrs after yeast challenge measured after 3 hrs (Rvb=39.20 +/- 0.24 degC); type: functional
# Rattus norvegicus [6] = experiment: Antipyretic activity against yeast-induced hyperpyrexia in hyperthermic rat assessed as rectal temperature at one-tenth of LD50 administered subcutaneously 18 hrs after yeast challenge measured after 2 hrs (Rvb=39.11 +/- 0.26 degC); type: functional
# [7] = Toxicity in sc dosed albino mouse up to 24 hrs; type: organism-based; conditions: in vivo
# Mus musculus [8] = experiment: Analgesic activity in mouse assessed as protection against acetic acid-induced writhing at one-tenth of LD50 administered subcutaneously 30 mins before acetic acid challenge measured after 3 hrs relative to control; type: functional
# Rattus norvegicus [9] = experiment: Antipyretic activity against yeast-induced hyperpyrexia in hyperthermic rat assessed as rectal temperature at one-tenth of LD50 administered subcutaneously 18 hrs after yeast challenge measured after 1 hr (Rvb=39.24 +/- 0.22 degC); type: functional
# Mus musculus [10] = experiment: Analgesic activity in mouse assessed as protection against acetic acid-induced writhing at one-tenth of LD50 administered subcutaneously 30 mins before acetic acid challenge measured after 1 hr relative to control; type: functional
SMILES,Activity (Rattus norvegicus [1]),Activity (Mus musculus [2]),Activity (Rattus norvegicus [3]),Activity (Mus musculus [4]),Activity (Rattus norvegicus [5]),Activity (Rattus norvegicus [6]),LD50 at 24 h [7],Activity (Mus musculus [8]),Activity (Rattus norvegicus [9]),Activity (Mus musculus [10])
CN(C)c1ccc(-c2cc(-c3c(O)ccc4c(-c5ccccc5)cc(=O)oc34)[nH]c(=N)c2C#N)cc1,38.89 °C,3.76%,18.85%,12%,38.39 °C,38.17 °C,310 mg/kg,11.52%,38.38 °C,9.41%
COc1ccc(-c2cc(-c3c(O)ccc4c(-c5ccccc5)cc(=O)oc34)[nH]c(=N)c2C#N)cc1,38.91 °C,1.88%,15.94%,0.7%,38.81 °C,38.81 °C,330 mg/kg,1.17%,38.9 °C,4.7%
CN(C)c1ccc(C2CC(c3c(O)ccc4c(-c5ccccc5)cc(=O)oc34)=NN2c2ccccc2)cc1 (stereo not given),38.88 °C,6.82%,5.78%,40.23%,38.43 °C,38.01 °C,330 mg/kg,20.47%,38.4 °C,39.76%
N#Cc1c(-c2ccccc2O)cc(-c2c(O)ccc3c(-c4ccccc4)cc(=O)oc23)[nH]c1=O,38.91 °C,6.38%,4.33%,30.49%,38.47 °C,38.2 °C,290 mg/kg,19.14%,38.34 °C,41.84%
C/C(=N\c1ccccc1N)c1c(O)ccc2c(-c3ccccc3)cc(=O)oc12,38.9 °C,1.64%,8.7%,12.44%,38.81 °C,38.41 °C,370 mg/kg,9.62%,38.61 °C,9.85%
O=C(/C=C/c1ccc(Cl)cc1)c1c(O)ccc2c(-c3ccccc3)cc(=O)oc12,38.91 °C,0.94%,20.27%,0.94%,38.84 °C,38.91 °C,330 mg/kg,1.65%,39.05 °C,0%
N#Cc1c(-c2ccc(Cl)cc2)cc(-c2c(O)ccc3c(-c4ccccc4)cc(=O)oc23)[nH]c1=O,38.91 °C,1.66%,16.35%,1.18%,38.81 °C,38.84 °C,310 mg/kg,0.71%,38.91 °C,0%
CN(C)c1ccc(C2CC(c3c(O)ccc4c(-c5ccccc5)cc(=O)oc34)=NN2c2ccc([N+](=O)[O-])cc2[N+](=O)[O-])cc1 (stereo not given),38.91 °C,7.29%,17.06%,35.29%,38.42 °C,38.1 °C,330 mg/kg,19.05%,38.54 °C,36.94%
COc1cc(OC)c(-c2cc(-c3c(O)ccc4c(-c5ccccc5)cc(=O)oc34)[nH]c(=O)c2C#N)c(OC)c1,38.91 °C,1.41%,5.78%,0.7%,38.81 °C,38.91 °C,390 mg/kg,0.7%,38.91 °C,0.47%
COc1ccc(C2CC(c3c(O)ccc4c(-c5ccccc5)cc(=O)oc34)=NN2c2ccccc2)cc1 (stereo not given),38.87 °C,6.63%,18.85%,39.09%,38.44 °C,38.14 °C,370 mg/kg,18.24%,38.51 °C,41.23%
CN(C)c1ccc(C2CC(c3c(O)ccc4c(-c5ccccc5)cc(=O)oc34)=NN2)cc1 (stereo not given),38.91 °C,2.11%,8.7%,1.64%,38.91 °C,38.9 °C,310 mg/kg,2.35%,38.91 °C,1.41%
C/C(=N\Nc1ccccc1)c1c(O)ccc2c(-c3ccccc3)cc(=O)oc12,38.91 °C,1.17%,12.35%,2.58%,38.91 °C,38.81 °C,290 mg/kg,2.81%,39.11 °C,3.75%
CN(C)c1ccc(/C=C/C(=O)c2c(O)ccc3c(-c4ccccc4)cc(=O)oc23)cc1,38.86 °C,9.41%,17.4%,36.94%,38.51 °C,38.21 °C,390 mg/kg,22.82%,38.31 °C,37.41%
COc1ccc(C2CC(c3c(O)ccc4c(-c5ccccc5)cc(=O)oc34)=NN2)cc1 (stereo not given),39.15 °C,0.71%,8.7%,10.71%,38.91 °C,38.91 °C,330 mg/kg,5.23%,38.81 °C,10%
CC(=O)c1c(O)ccc2c(-c3ccccc3)cc(=O)oc12,39.06 °C,2.81%,20.27%,2.34%,39 °C,38.91 °C,290 mg/kg,4.92%,38.91 °C,0%
C/C(=N\Nc1ccc([N+](=O)[O-])cc1[N+](=O)[O-])c1c(O)ccc2c(-c3ccccc3)cc(=O)oc12,38.93 °C,4.47%,0.67%,18.35%,38.34 °C,38.05 °C,370 mg/kg,13.41%,38.42 °C,16.7%
N#Cc1c(-c2ccc(Cl)cc2)cc(-c2c(O)ccc3c(-c4ccccc4)cc(=O)oc23)[nH]c1=N,38.91 °C,3.52%,4.7%,2.58%,38.84 °C,39 °C,390 mg/kg,5.39%,38.91 °C,3.28%
